Data as given in patent US20250277001A1, “PEPTIDE DERIVATIVES AND RELATED USES AS OREXIN AGONISTS” (CENTESSA PHARMACEUTICALS (UK) LIMITED, priority 2022, published 2025).
Where two headings read alike, the source gives them in different places. Where a SMILES comes first, the peptide text is derived from it. Where no end group is shown, it is not given here. [ ]: non-standard residue; d: D form. The star is where a group is joined. Malonyl(2,2-Me2,histaminyl) = CC(C)(C(=O)NCCc1cnc[nH]1)C(=O)*; d(hArg) = N=C(N)NCCCC[C@@H](N)C(=O)O; Gly(NCH2CH2Ph) = O=C(O)CNCCc1ccccc1; Hyp = O=C(O)[C@@H]1C[C@@H](O)CN1; hArg = N=C(N)NCCCC[C@H](N)C(=O)O; NMeN = CN[C@@H](CC(N)=O)C(=O)O; Aoc(2) = CCCCCC[C@H](N)C(=O)O; Phg = N[C@H](C(=O)O)c1ccccc1; Nle = CCCC[C@H](N)C(=O)O

Columns and labels:
mice = conditions: intracerebroventricular (ICV), orexin-neuron ablated mice; cited from earlier work
[1] = biological target: T1, human orexin type 2 receptor (hOX2R) (Homo sapiens, UniProt O43614); experiment: Measurement of orexin type 2 receptor agonist activity (CHO cells, FLIPR TETRA intracellular Ca2+); type: cell-based
T1 construct: expressed in transfected cells
T1 sequence (O43614 1-444): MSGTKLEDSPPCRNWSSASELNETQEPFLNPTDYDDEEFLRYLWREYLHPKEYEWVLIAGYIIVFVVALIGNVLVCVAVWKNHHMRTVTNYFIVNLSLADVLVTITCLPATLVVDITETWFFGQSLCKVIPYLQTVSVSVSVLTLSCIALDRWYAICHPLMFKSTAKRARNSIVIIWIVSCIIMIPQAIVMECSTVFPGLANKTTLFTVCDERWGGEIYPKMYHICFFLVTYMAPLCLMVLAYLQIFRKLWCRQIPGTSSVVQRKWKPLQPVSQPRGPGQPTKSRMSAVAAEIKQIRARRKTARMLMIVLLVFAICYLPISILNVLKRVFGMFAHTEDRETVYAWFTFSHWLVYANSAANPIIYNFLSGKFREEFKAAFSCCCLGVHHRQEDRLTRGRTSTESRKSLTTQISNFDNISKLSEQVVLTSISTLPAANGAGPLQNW
Text: (§1) In some embodiments, the assay uses cells stably expressing either human orexin type 2 or human orexin type 1 receptor. In some embodiments, the cells are obtained by inserting the Orexin receptor cDNA into pcDNA3.1(+) plasmid vector, identifying clones by G418 drug resistance selection, and/or growing a single clone for OX2R-CHO and OX1R-CHO in bulk. In some embodiments, the assay is detected using Fluorescent Imaging Plate Reader TETRA (FLIPR TETRA: manufactured by Molecular Devices). In some embodiments, the agonist activity of the test peptide is calculated assuming that the fluorescence value of the well containing only the dilution buffer is 0% and the fluorescence value of the well containing 10 nM human orexin A (Tocris) buffer is 100%.
(§2) Stable cell line generation. Obtainment of cells stably expressing either human orexin type 2 or human orexin type 1 receptor: to obtain a stable cell line the Orexin receptor cDNA was inserted into pcDNA3.1(+) plasmid vector and clones identified by G418 drug resistance selection. […] A single clone for OX2R-CHO and OX1R-CHO were grown in bulk and frozen to generate a cell bank for routine screening.
(§3) Measurement of orexin type 2 receptor agonist activity. Chinese hamster ovary (CHO) cells expressing human orexin type 2 receptor (hOX2R) seeded in each well of 384 well black clear bottom plates (BD Flacon) at 10,000 cells per well and cultured for 24 h in an Ham's F12 (Gibco) medium containing 10% fetal calf serum (Sigma Aldrich) under the conditions of 37° C., 5% CO2. After removal of the medium, 50 μL of assay buffer 1 (0.1% bovine serum albumin (Sigma Aldrich), 20 mM HEPES (Molecular Dimensions), […] probenecid (Sigma Aldrich), 1× Calcium 5 dye (Molecular Devices) in Hank's balanced salt solution (Invitrogen)) was added, and the cells were incubated for 60 min under the conditions of 37° C., 5% CO2. A test peptide was dissolved in dimethyl sulfoxide (Sigma Aldrich) to 1 mM, and then diluted with assay buffer 2 (20 mM HEPES, Hank's balanced salt solution, 0.1% bovine serum albumin). For the reaction, a test peptide solution (10 μl) was added using Fluorescent Imaging Plate Reader TETRA (FLIPR TETRA: manufactured by Molecular Devices), a fluorescence value (excitation wavelength 488 nm, measurement wavelength 570 nm) of each well was measured every one second for 2 min, and the agonist activity was determined using the area of the fluorescence value as an indicator of intracellular Ca^2+ concentration. The agonist activity of the test peptide was calculated assuming that the fluorescence value of the well added with only the dilution buffer was 0% and the fluorescence value of the well added with 10 nM human orexin A (Tocris) buffer was 100%. As used herein, Emax indicates the value at 1 μM concentration when orexin A is converted to a full agonist (maximum value of agonist activity: 100%).

[2] = biological target: T2, human orexin type 1 receptor (hOX1R) (Homo sapiens, UniProt O43613); experiment: Measurement of orexin type 1 receptor agonist activity (CHO cells, FLIPR TETRA intracellular Ca2+); type: cell-based
T2 construct: expressed in transfected cells
T2 sequence (O43613 1-425): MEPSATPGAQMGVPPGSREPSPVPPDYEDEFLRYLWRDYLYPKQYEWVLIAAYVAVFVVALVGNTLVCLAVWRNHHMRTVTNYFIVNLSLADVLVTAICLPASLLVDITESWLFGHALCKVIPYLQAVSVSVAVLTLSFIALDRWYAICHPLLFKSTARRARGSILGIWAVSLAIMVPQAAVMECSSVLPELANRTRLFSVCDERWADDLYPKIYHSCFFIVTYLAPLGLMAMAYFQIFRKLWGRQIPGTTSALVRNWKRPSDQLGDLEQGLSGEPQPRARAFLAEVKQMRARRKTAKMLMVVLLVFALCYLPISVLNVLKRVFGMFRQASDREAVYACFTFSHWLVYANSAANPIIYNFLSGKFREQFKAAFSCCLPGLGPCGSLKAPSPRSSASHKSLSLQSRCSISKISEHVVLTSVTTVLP
Text: as §1, §2
as §3, with “type 1” for “type 2”, “receptor (hOX1R) were” for “receptor (hOX2R)”

[3] = CHO cells expressing hOX2R, Ca2+ fluorescence, read-out: hOX2 pEC50 (converted)
[4] = CHO cells expressing hOX1R, Ca2+ fluorescence, read-out: hOX1 pEC50 (converted)

Row | EC50 [1, 3] | EC50 [2, 4] | Compound | EC50 [1] | EC50 [2] | other results
1 |  |  | orexin A (QPLPDCCRQKTCSCRLYELLHGAGNHAAGILTL; ends and bridges not checked; cysteine pairing not given here; UniProt O43612 34-66, looked up) [orexin neuropeptide, also known as hypocretin-1] |  |  | cataplexy-like behavior (mice): decreases; time spent awake (mice): increase
2 |  |  | CCCCCC[C@H](NC(=O)[C@@H](NC(=O)[C@H](CC(C)C)NC(=O)[C@@H](NC(=O)CNC(=O)[C@@H](NC(=O)[C@H](C)NC(=O)[C@H](Cc1c[nH]cn1)NC(=O)[C@H](CC(N)=O)NC(=O)CN(CCc1ccccc1)C(=O)[C@H](CCCNC(=N)N)NC(=O)[C@@H]1CCCN1C(=O)[C@H](CCCCNC(=N)N)NC(=O)[C@H](CCC(N)=O)NC(=O)C(C)(C)C(=O)NCCc1cnc[nH]1)c1ccccc1)[C@@H](C)CC)[C@@H](C)O)C(N)=O [compound 2] ({Malonyl(2,2-Me2,histaminyl)}-Q[hArg]PR[Gly(NCH2CH2Ph)]NHA[Phg]GILT[Aoc(2)]-NH2) | < 0.1 nM | > 10 nM | 
3 |  |  | CCCCCC[C@H](NC(=O)[C@@H](NC(=O)[C@H](CC(C)C)NC(=O)[C@@H](NC(=O)CNC(=O)[C@@H](NC(=O)[C@H](C)NC(=O)[C@@H]1C[C@@H](O)CN1C(=O)[C@H](CC(N)=O)N(C)C(=O)CN(CCc1ccccc1)C(=O)[C@H](CCCCN)NC(=O)[C@@H]1CCCN1C(=O)[C@H](CCCCNC(=N)N)NC(=O)[C@H](CCC(N)=O)NC(=O)C(C)(C)C(=O)NCCc1cnc[nH]1)c1ccccc1)[C@@H](C)CC)[C@@H](C)O)C(N)=O [compound 8] ({Malonyl(2,2-Me2,histaminyl)}-Q[hArg]PK[Gly(NCH2CH2Ph)][NMeN][Hyp]A[Phg]GILT[Aoc(2)]-NH2) | < 0.1 nM | > 10 nM | 
4 |  |  | CCCCCC[C@H](NC(=O)[C@@H](NC(=O)[C@H](CC(C)C)NC(=O)[C@@H](NC(=O)CNC(=O)[C@@H](NC(=O)[C@H](C)NC(=O)[C@@H]1C[C@@H](O)CN1C(=O)[C@H](CC(N)=O)N(C)C(=O)CN(CCc1ccccc1)C(=O)[C@H](CCCNC(=N)N)NC(=O)[C@H]1CCCN1C(=O)[C@H](CCCCNC(=N)N)NC(=O)[C@H](CCC(N)=O)NC(=O)C(C)(C)C(=O)NCCc1cnc[nH]1)c1ccccc1)[C@@H](C)CC)[C@@H](C)O)C(N)=O [compound 6] ({Malonyl(2,2-Me2,histaminyl)}-Q[hArg][dP]R[Gly(NCH2CH2Ph)][NMeN][Hyp]A[Phg]GILT[Aoc(2)]-NH2) | < 0.1 nM | > 10 nM | 
5 | < 0.1 nM | > 10 nM | CCCC[C@H](NC(=O)[C@@H](NC(=O)[C@H](CC(C)C)NC(=O)[C@@H](NC(=O)CNC(=O)[C@H](C)NC(=O)[C@H](C)NC(=O)[C@H](Cc1c[nH]cn1)NC(=O)[C@H](CC(N)=O)NC(=O)CNC(=O)[C@H](CO)NC(=O)[C@@H](C)NC(=O)[C@@H](Cc1ccccc1)NC(=O)[C@H](CC(C)C)NC(=O)[C@@H](N)CC(C)C)[C@@H](C)CC)[C@@H](C)O)C(N)=O [compound 12] (H-LL[dF][dA]SGNHAAGILT[Nle]-NH2) |  |  | 
6 | < 0.1 nM | > 10 nM | CCCC[C@H](NC(=O)[C@@H](NC(=O)[C@H](CC(C)C)NC(=O)[C@@H](NC(=O)CNC(=O)[C@@H](NC(=O)[C@H](C)NC(=O)[C@H](Cc1c[nH]cn1)NC(=O)[C@H](CC(N)=O)NC(=O)CNC(=O)[C@H](CO)NC(=O)[C@H](C)NC(=O)[C@H](Cc1c[nH]c2ccccc12)NC(=O)[C@@H](CC(C)C)NC(=O)[C@@H](N)Cc1ccccc1)c1ccccc1)[C@@H](C)CC)[C@@H](C)O)C(N)=O [compound 10] (H-F[dL]WASGNHA[Phg]GILT[Nle]-NH2) |  |  | 
7 | < 0.1 nM | > 10 nM | CCCCCC[C@H](NC(=O)[C@@H](NC(=O)[C@H](CC(C)C)NC(=O)[C@@H](NC(=O)CNC(=O)[C@@H](NC(=O)[C@H](C)NC(=O)[C@@H]1C[C@@H](O)CN1C(=O)[C@H](CC(N)=O)N(C)C(=O)CN(CCc1ccccc1)C(=O)[C@H](CCCNC(=N)N)NC(=O)[C@H](CCCNC(=N)N)NC(=O)[C@@H]1C[C@@H](O)CN1C(=O)[C@@H]1C[C@@H](O)CN1C(=O)[C@@H]1C[C@@H](O)CN1)c1ccccc1)[C@@H](C)CC)[C@@H](C)O)C(N)=O [compound 16] (H-[Hyp][Hyp][Hyp]RR[Gly(NCH2CH2Ph)][NMeN][Hyp]A[Phg]GILT[Aoc(2)]-NH2) |  |  | 
8 |  |  | CCCCCC[C@H](NC(=O)[C@@H](NC(=O)[C@H](CC(C)C)NC(=O)[C@@H](NC(=O)CNC(=O)[C@@H](NC(=O)[C@H](C)NC(=O)[C@@H]1C[C@@H](O)CN1C(=O)[C@H](CC(N)=O)N(C)C(=O)CN(CCc1ccccc1)C(=O)[C@H](CCCNC(=N)N)NC(=O)[C@@H]1CCCN1C(=O)[C@H](CCCCNC(=N)N)NC(=O)[C@H](CCC(N)=O)NC(=O)C(C)(C)C(=O)NCCc1cnc[nH]1)c1ccccc1)[C@@H](C)CC)[C@@H](C)O)C(N)=O [compound 3] ({Malonyl(2,2-Me2,histaminyl)}-Q[hArg]PR[Gly(NCH2CH2Ph)][NMeN][Hyp]A[Phg]GILT[Aoc(2)]-NH2) | < 0.1 nM | > 10 nM | 
9 |  |  | CCCCCC[C@H](NC(=O)[C@@H](NC(=O)[C@H](CC(C)C)NC(=O)[C@@H](NC(=O)CNC(=O)[C@@H](NC(=O)[C@H](C)NC(=O)[C@@H]1C[C@@H](O)CN1C(=O)[C@H](CC(N)=O)N(C)C(=O)CN(CCc1ccccc1)C(=O)[C@H](CCCNC(=N)N)NC(=O)[C@@H]1CCCN1C(=O)[C@@H](CCCCNC(=N)N)NC(=O)[C@H](CCC(N)=O)NC(=O)C(C)(C)C(=O)NCCc1cnc[nH]1)c1ccccc1)[C@@H](C)CC)[C@@H](C)O)C(N)=O [compound 5] ({Malonyl(2,2-Me2,histaminyl)}-Q[d(hArg)]PR[Gly(NCH2CH2Ph)][NMeN][Hyp]A[Phg]GILT[Aoc(2)]-NH2) | < 0.1 nM | > 10 nM | 
